Assay results as given in US10709707B2, “Methods of treating ocular conditions” (Oyster Point Pharma, Inc., priority 2016, dated 2020).
“Also recorded” adds a separate entry of the source. Where two headings read alike, the source gives them in different places.

Key:
[1] = system: blood pressure, heart rate, ECG; assay: Cardiovascular safety, telemetry in conscious dogs po; assay type: in vivo, Dog: Beagle
[2] = as above; assay type: in vivo, Dog: Beagle; details: beagle, dog, in vivo; 5, 10, 20 mg/kg po; read-out: terminal half-life (TK)
human α3β2 = target: T1, human α3β2 (Homo sapiens, UniProt P17787+P32297); assay: Receptor binding α3β2, recombinant human receptors in HEK cells; details: [3H]-S-nicotine, human α3β2 expressed in HEK cells
T1 construct: expressed in transfected cells

human α7 = target: T2, human α7 (Homo sapiens, UniProt P36544); assay: Receptor binding α7, recombinant human receptors in HEK cells; details: human α7 expressed in HEK cells
T2 construct: expressed in transfected cells; host or cells: HEK cells (per the earlier reading)

[3] = target: T3, α4β2 nicotinic acetylcholine receptor (Rattus norvegicus, UniProt P09483+P12390); assay: Receptor binding α4β2, inhibition of [3H]-(S)-nicotine binding, rat brain membranes
T3 construct: from tissue; host or cells: rat brain cortical membranes

[4] = clinical studies with oral Compound 1; assay type: in vivo, human
Protocol: The oral form of Compound 1-A, Compound 1, has been studied in several clinical trials. A total of 108 human subjects have received Compound 1: 69 healthy volunteers in Phase 1 studies, 23 subjects in a Phase 1b gastroparesis study, and 16 subjects with constipation predominant irritable bowel syndrome (IBS-C) in a Phase 2a study. Subjects were exposed to doses of Compound 1 ranging from 5 mg through and including 200 mg.

formalin test = assay: Analgesic effects, formalin test; assay type: in vivo, Mouse: CD-1; details: po; Compound 1 0.1, 1 and 10 mg/kg, Aspirin 100 mg/kg, Morphine 30 mg/kg
[5] = system: subjects (intranasal administration); assay: Panel of compounds administered intranasally: effect on tearing and discomfort response; details: 50 microliters intranasally, three subjects, 0.01 mg/mL increased logarithmically up to 10 mg/mL
Protocol: A panel of twenty compounds with various receptor binding profiles, including other nicotinic acetylcholine receptor (nAchR) agonists were tested. At the onset of the experiment, 50 microliters of a 0.01 mg/mL compound formulation was administered intranasally to three subjects.

pKa = assay type: physicochemical
[6] = system: neuronal nicotinic receptors; assay: In vitro binding (off-target receptors) at 10 μM; details: hemigalactarate salt
[7] = Cardiovascular safety, guinea pig iv; assay type: in vivo; details: guinea pig, in vivo; intravenous
Ames test = assay type: cell-based; details: in vitro
Source text: Compound 1 was negative for mutagenicity in both in vitro bioassays—including an Ames test, a micronucleus test in mouse lymphoma cells, and a chromosome aberration assay using cultured human peripheral blood lymphocytes—and an in vivo rat bone marrow micronucleus test.

[8] = 13-week repeat-dose oral toxicity in rats; assay type: in vivo, rat
Protocol: Compound 1 was given to rats once daily for at least 13 weeks via oral gavage at doses of 30, 100, or 300 mg/kg/day. Two of 15 females receiving 300 mg/kg/day died. Clinical signs in males and females in this high-dose group included; reduced food consumption, anogenital staining, lacrimation, chromodacryorrhea, and tremors. Laboratory results included marginally lower RBC mass that correlated with elevated reticulocyte counts with recovery; elevated liver enzymes and bilirubin throughout the dosing period, with evidence of resolution during recovery urinary changes, including increased urine volume, elevated urinary protein, and higher bilirubin and urobilinogen, with resolution during recovery. Rats receiving doses of 100 mg/kg/day and higher had clinical signs that included excessive salivation, tan brown muzzle, closed or partially closed eyelids, and reduced body weight. Laboratory results included elevated WBC (lymphocytes and neutrophils), with recovery; elevated bilirubin; and a slight decrease in total serum protein (globulins and albumin). […] At doses ≥100 mg/kg/day, microscopic findings of centrilobular hepatocellular hypertrophy, medullary adrenal gland cell hypertrophy, mucosal epithelial cell hyperplasia of the small intestine, and increased extramedullary hematopoiesis and hemosiderin deposits in the red pulp of the spleen were observed. […] Accordingly, the NOAEL was considered to be 30 mg/kg/day. […] AUC and Cmax increased between Day 1 and Day 29.

[9] = target: T4, ganglionic receptor (α3β4) (Homo sapiens, UniProt P30926+P32297); assay: Receptor function ganglionic receptors (human), SH-SY5Y and IMR-32 cells; assay type: cell-based
T4 construct: endogenous in cells

a4b4 = a4b4 (Homo sapiens, UniProt P30926+P43681); assay: Receptor binding a4b4
plasma protein binding = assay type: in vitro ADME; details: mouse, rat, guinea pig, dog, monkey and human plasma; concentrations up to about 113 μM
[10] = system: STZ rat model of diabetic neuropathy; assay: Mechanical allodynia, STZ rat model of diabetic neuropathy; assay type: in vivo, Rat: Sprague-Dawley
muscarinic M4 = target: T5, muscarinic M4 (Homo sapiens, UniProt P08173); assay: Follow-up dose response binding assay (CEREP)
T5 construct: CEREP (contract laboratory, per the earlier reading)

[11] = 2.5, 5, 10 mg/kg po once daily for 5 days
[12] = female, rat, in vivo, po, 30 mg/kg/day
[13] = male, rat, in vivo, po, 30 mg/kg/day
[14] = Human ganglion-type (a3b4*), Ca++ Flux

T4 sequence (P32297 32-505): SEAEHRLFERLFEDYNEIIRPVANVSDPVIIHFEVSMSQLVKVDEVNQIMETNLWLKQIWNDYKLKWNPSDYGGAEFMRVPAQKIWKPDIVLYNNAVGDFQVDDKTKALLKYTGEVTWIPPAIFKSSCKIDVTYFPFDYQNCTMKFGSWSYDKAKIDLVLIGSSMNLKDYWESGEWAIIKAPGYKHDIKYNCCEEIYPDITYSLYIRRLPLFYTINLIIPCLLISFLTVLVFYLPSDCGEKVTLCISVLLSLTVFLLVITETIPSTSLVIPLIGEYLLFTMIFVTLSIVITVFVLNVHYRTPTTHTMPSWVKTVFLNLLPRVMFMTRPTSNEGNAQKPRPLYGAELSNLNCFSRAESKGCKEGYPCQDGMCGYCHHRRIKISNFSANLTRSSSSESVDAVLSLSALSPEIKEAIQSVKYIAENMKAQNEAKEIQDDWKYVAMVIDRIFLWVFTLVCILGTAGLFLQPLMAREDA
T4 sequence (P30926 22-498): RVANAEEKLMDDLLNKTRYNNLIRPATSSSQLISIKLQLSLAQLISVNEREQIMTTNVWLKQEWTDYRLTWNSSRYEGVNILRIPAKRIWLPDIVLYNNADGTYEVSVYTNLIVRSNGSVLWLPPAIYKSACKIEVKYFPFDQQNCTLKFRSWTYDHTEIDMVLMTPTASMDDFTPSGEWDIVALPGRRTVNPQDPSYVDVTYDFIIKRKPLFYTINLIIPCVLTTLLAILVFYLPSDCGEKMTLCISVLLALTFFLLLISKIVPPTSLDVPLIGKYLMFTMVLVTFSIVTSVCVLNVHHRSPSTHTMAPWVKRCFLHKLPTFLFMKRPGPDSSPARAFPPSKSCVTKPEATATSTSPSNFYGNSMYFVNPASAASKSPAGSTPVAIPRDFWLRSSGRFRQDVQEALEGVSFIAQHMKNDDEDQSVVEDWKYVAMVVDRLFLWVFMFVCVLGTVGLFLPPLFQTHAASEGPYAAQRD
T3 sequence (P09483 31-630): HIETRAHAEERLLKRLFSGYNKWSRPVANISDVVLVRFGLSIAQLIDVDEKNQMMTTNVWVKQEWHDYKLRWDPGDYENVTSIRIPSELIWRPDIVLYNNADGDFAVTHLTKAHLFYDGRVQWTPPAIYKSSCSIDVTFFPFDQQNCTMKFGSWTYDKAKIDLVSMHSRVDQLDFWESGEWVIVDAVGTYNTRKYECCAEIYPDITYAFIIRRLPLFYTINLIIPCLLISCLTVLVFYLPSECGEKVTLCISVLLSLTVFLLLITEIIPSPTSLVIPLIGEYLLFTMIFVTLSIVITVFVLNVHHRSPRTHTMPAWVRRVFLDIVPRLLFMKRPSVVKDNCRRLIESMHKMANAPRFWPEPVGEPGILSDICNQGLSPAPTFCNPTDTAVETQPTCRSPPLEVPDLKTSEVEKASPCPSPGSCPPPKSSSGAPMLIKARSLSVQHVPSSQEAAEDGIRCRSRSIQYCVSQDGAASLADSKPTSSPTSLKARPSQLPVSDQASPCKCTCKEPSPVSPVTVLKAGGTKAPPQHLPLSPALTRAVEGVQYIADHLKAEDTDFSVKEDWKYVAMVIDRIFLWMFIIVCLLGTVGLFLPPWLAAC
T3 sequence (P12390 25-500): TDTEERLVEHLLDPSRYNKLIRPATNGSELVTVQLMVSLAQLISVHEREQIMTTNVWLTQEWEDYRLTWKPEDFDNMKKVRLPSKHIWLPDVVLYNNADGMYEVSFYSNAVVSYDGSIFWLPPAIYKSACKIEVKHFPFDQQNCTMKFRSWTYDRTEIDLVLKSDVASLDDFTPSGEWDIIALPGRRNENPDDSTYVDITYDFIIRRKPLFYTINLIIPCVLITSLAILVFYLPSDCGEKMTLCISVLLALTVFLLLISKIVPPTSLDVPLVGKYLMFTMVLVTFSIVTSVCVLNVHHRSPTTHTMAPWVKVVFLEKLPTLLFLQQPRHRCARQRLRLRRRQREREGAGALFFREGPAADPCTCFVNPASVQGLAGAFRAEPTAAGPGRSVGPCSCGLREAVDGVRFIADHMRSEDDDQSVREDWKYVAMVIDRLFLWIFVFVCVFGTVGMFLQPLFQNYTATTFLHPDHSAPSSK
T5 sequence (P08173 whole entry): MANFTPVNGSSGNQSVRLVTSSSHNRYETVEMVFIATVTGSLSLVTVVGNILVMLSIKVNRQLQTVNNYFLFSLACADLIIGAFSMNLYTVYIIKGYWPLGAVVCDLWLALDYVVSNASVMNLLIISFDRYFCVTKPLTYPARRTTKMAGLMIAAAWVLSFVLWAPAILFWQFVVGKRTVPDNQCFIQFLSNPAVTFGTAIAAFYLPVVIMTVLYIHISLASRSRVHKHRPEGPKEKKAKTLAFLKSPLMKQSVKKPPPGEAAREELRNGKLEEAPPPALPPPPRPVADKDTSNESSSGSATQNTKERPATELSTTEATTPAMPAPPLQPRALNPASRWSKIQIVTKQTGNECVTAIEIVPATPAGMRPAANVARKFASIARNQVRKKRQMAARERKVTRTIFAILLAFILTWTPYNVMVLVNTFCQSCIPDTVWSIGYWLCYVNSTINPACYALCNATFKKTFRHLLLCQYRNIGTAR
T2 sequence (P36544 23-502): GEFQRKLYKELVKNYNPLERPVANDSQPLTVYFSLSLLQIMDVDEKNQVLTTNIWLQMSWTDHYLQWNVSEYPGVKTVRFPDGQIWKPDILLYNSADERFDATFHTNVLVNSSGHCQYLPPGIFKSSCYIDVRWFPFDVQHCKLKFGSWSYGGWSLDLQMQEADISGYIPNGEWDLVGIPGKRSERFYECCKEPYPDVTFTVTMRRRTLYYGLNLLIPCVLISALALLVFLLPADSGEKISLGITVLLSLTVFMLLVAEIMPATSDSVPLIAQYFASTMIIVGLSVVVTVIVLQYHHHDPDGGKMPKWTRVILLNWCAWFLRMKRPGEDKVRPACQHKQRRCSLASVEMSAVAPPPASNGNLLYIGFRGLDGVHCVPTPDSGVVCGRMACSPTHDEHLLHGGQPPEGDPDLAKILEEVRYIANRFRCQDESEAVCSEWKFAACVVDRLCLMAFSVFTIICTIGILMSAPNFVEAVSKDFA
a4b4, sequence (P43681 29-627 limits assumed): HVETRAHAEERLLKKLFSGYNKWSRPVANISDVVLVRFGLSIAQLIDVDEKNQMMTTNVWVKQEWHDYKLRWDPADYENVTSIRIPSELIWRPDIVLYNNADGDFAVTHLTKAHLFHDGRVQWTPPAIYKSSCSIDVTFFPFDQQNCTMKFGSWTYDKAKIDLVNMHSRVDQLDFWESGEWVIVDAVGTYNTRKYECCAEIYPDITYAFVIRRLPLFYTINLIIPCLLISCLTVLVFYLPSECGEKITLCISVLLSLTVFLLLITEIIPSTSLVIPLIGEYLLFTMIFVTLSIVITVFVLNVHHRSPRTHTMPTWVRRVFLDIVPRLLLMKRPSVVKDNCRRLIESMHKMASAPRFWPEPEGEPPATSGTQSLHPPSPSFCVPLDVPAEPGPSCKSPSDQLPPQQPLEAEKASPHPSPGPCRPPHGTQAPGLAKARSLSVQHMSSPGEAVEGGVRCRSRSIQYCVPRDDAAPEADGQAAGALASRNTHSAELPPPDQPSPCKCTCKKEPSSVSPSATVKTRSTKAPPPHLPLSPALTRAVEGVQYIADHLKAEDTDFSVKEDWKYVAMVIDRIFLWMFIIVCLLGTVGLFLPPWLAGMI
a4b4, sequence (P30926 22-498): as the sequence (P30926 22-498) above
T1 sequence (P32297 32-505): as the sequence (P32297 32-505) above
T1 sequence (P17787 26-502): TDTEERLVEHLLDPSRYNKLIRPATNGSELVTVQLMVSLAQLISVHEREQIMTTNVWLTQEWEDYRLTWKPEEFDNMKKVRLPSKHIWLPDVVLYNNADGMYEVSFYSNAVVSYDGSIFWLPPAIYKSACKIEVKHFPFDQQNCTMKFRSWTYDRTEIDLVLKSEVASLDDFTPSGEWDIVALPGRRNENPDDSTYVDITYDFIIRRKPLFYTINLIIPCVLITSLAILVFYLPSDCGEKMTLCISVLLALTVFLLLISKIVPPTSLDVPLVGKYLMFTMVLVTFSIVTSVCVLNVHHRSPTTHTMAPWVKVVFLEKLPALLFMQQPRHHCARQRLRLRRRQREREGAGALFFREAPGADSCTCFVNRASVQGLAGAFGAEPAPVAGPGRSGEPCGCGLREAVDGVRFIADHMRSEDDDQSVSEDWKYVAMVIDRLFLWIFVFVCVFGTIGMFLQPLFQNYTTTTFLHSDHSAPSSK

C(=C\[C@H]1CCNC1)/c1cncnc1 [Compound 1, (R)-5-((E)-2-pyrrolidin-3-ylvinyl)pyrimidine]
other findings ([1]; 5 mg/kg po): 5 mg/kg produced no other findings. | ventricular extrasystole 10 to 25 minutes after dosing ([1]; 10 mg/kg po): 10 mg/kg was associated with 1 | emesis ([1]; 20 mg/kg po): emesis were noted at 20 mg/kg. | lengthening of the QT interval ([1]; 20 mg/kg po): slight lengthening; also recorded: after dosing. In addition, slight | ventricular extrasystole 10 to 25 minutes after dosing ([1]; 20 mg/kg po): 20 mg/kg was associated with 1 | PQ interval [1, 11]: tachycardia, and decreased PQ interval. | QRS duration, QT interval, body temperature [1, 11]: There were no changes in the QRS | accumulation after repeat dosing (TK) [1, 11]: sexes. No accumulation was observed after | tachycardia [1, 11]: pressure (mainly diastolic), marked | dose proportionality of Cmax and AUC (TK) ([1]; 2.5, 5, 10 mg/kg po, either sampling day): TK: There were no proportional increases | increase in blood pressure and bursts of sinus tachycardia ([1]; 5, 10, 20 mg/kg po, all dogs): Compound 1 produced a transient and slight | emesis shortly after dosing ([1]; all doses): exhibited emesis | systolic and diastolic blood pressure and heart rate ([1]; oral doses up to 10 mg/kg): non-dose dependent increase | half-life [2]: 1.3 to 4.2 h | Ki (human α3β2): 0.027 µM | Ki (human α7): 15 µM | Ki ([3]; Rat a4b2, assay and tissue type not given): 0.034 µM | Ki ([3]; [3H]-S-nicotine, rat brain cortical membranes): 0.027 µM | changes in physical exam, blood or urine laboratory measurements or ECG measurements ([4]; 108 human subjects, oral doses 5 mg to 200 mg): No clinical noteworthy changes | adverse events reported ([4]; all studies, oral doses 5 mg to 200 mg): typically GI-related | changes in ECG measurements ([4]; clinical studies to date): no noteworthy changes | analgesic effects after formalin injection, Day 1 (formalin test): mg/kg) and Aspirin at 100 mg/kg failed | Causes Tearing [5]: Yes | Discomfort Response [5]: No | pKa (pKa; read-out: pKa(1)): 1.73 | pKa (pKa; read-out: pKa(2)): 10.3 | binding affinity [6]: nicotinic receptors (100%), the only | MTD [7]: 0.3 mg/kg | mutagenicity, Ames test (Ames test): negative | NOAEL at 13 weeks ([8]; both sexes, in vivo, 13-week rat study, oral, as summarised): 30 mg/kg | Tmax ([8]; both sexes, rat, in vivo, po): 0.5 to 2 h | NOAEL at 13 weeks ([8]; both sexes, rat, in vivo, rats, oral gavage once daily, 13 weeks): 30 mg/kg/day | AUC [8, 12]: 10200 ng·h/mL | Cmax [8, 12]: 3150 ng/mL | deaths ([8]; females, 300 mg/kg/day): Two of 15 | incidence of minimal hepatocellular hypertrophy ([8]; male, rat, in vivo, 30 mg/kg/day, 13 weeks): 7 of 10 | AUC [8, 13]: 12100 ng·h/mL | Cmax [8, 13]: 2570 ng/mL | EC50 [9, 14]: 13 µM | Emax [9, 14]: 150% | EC50 ([9]; IMR-32 cells): 22 µM | EC50 ([9]; Rb+ Flux, IMR cells): 22 µM | Emax ([9]; Rb+ Flux, IMR cells): 79% | EC50 ([9]; Rb+ Flux, SHSY5Y cells): 18 µM | EC50 ([9]; SH-SY5Y cells): 18 µM | Emax vs. nicotine ([9]; SH-SY5Y cells): 60% | Emax ([9]; SH-SY5Y, Rb+ Flux, SHSY5Y cells): 60% | agonist type ([9]; α3β4 nicotine receptor subtype): full agonist | Ki (a4b4): 0.68 µM | fraction unbound (plasma protein binding): > 0.87 | allodynia, acute dosing ([10]; 0.5 and 2 hr post-dosing, Compound 1 0.1 and 1 mg/kg po, Gabapentin 100 mg/kg ip): significantly reversed; also recorded: Acute Dosing - Compound 1 reversed | onset of action ([10]; animal models of neuropathic pain, compared to gabapentin): 30 min | allodynia, repeat dosing ([10]; once daily 0.1, 1, 10 mg/kg po, all doses, 6 weeks post-STZ dosing): significantly reversed; also recorded: all dosessignificantly reduced | dose levels producing reversal of mechanical allodynia ([10]; repeat dosing, 4 weeks post-dosing): 4 weeks post-dosing, no dose | Ki (muscarinic M4): 5.8 µM
